Literature values, collected in publication PMC4022290 (Nuclear medicine and biology, 2013).

Tested on: tumors

## D-Phe-Gln-Trp-Ala-Val-Gly-His-Sta-Leu-NH2 [RM2]
  uptake and retention in tumors vs agonist GRPr-targeting ligands: improved uptake and retention in tumors as compared to agonist GRPr-targeting ligands
